This is an account of results in US9428815B2, “HIV-1 reverse transcriptase codon deletion and its use in the management and treatment of HIV infections” (Emory University, priority 2007, dated 2016).

Assay [1] concerns the target T1, RT from virally-derived S68del (Human immunodeficiency virus type 1 group M subtype B, UniProt P03367, DEL667-667).
T1 construct: The resistance of RT derived from S68del and M184V particles; made in house; host or cells: crude virus pellet; the virus was passaged in human PBM cells
As to the kind of experiment: Heteropolymeric-DNA colorimetric RT assay with 3.2 mM ATP, particle-derived S68del RT. It is filed as biochemical, HIV-1. An excerpt:
(§1) The principle and performance of the non-radioactive RT assay has been described (Lennerstrand et al., Antimicrob. Agents Chemother. 2007; 51:2078-2084). Separate kit components, such as covalently-linked DNA microtiter plates and tracer solution (alkaline phosphate (AP)-conjugated anti-BrdU antibody) were obtained from Cavidi Tech, Uppsala, Sweden. In brief, the 96-well microtiter plate used consisted of an 18 base heteropolymeric DNA primer covalently bound to the well. In the RT assay, the DNA primer is bound to a 50-base DNA template at 50 ng/well (190 nM) with a 5′-A12-3′ tail with a 5′-(GTCA)5-3′ repeat (Integrated DNA Technologies, USA). The RT assay reaction mixture (total volume 150 μl/well) contained: Hepes 50 mM, pH 7.3; MgCl2 10 mM; Triton X-100 0.5%; bovine serum albumin 0.1 mg/ml; dATP, dGTP, dCTP and 5-bromo-2′-deoxyuridine-5′-triphosphate (BrdUTP) at 1.0 μM each (where BrdUTP replaces TTP) (Sigma). To obtain ATP primer unblocking reaction in the assay, the ATP (Amersham/GE Health Care) was set to physiological concentration (3.2 mM). However, the ATP was only used in the assay with virus pellets as sample, not merely for primer unblocking reaction but to protect degradation of substrate in the crude sample. Furthermore, the dNTP level including BrdUTP was increased from 1 μM to 4 μM for the assay with the virus pellet samples. Subsequently, in the assay with recombinant purified RT enzyme, no ATP besides 1 μM dNTP was used.
(§2) The reaction was started with the addition of RT either as recombinant or crude virus pellet form in a similar activity range as previous published (Lennerstrand et al., Antimicrob. Agents Chemother. 2007; 51:2078-2084). The RT reaction mixture was incubated at 33° C. for 180 min and terminated by NaOH (to dehybridize the template) and water washing of the plates.

For assay [2], the system named is HIVs68Δ-23 (S68del virus isolated at week 23). As to the kind of experiment: 3H-TTP RT incorporation assay, drug susceptibility of in vitro-selected S68del virus in human PBM cells. The assay is classed as cell-based, HIV-1. Particulars: Human immunodeficiency virus 1, PBMC; HIVs68Δ-23 in human PBM cells; averages of 2-6 independent experiments. As for the experimental part: Peripheral blood mononuclear (PBM) cells were separated by ficoll-hypaque (Histopaque 1077: Sigma) density gradient centrifugation from Buffy coats obtained from the American Red Cross (Atlanta, Ga.). Buffy coats were derived from healthy seronegative donors. Cells were activated with 3 μg/ml phytohaemagglutinin A (Sigma-Aldrich, St. Louis, Mo.) in 500 ml of RPMI-1640 (Mediatech Inc., Herndon, Va.) containing 100 ml heat-inactivated fetal bovine serum (Hyclone), 83.3 IU/ml penicillin, 83.3 μg/ml streptomycin, 1.6 mM L-glutamine (Mediatech Inc., Herndon, Va.), for 2-3 days prior to use.
Drug resistance of the S68del virus isolated at week 23 (HIVs68Δ-23) was measured with the 3H-TTP RT incorporation assay in human PBM cells (Schinazi, et al., Antimicrob. Agents Chemother. 1990; 34:1061-1067; Stuyver et al., Antimicrob. Agents Chemother. 2002; 46:3854-60). HIVs68Δ-23 was population sequenced to ensure the dominant population was the deletion at codon 68. […] The susceptibility of the S68del virus to several nucleoside reverse transcriptase inhibitors (NRTI), a non-nucleoside reverse transcriptase inhibitor (NNRTI) and a protease inhibitor (PI) was tested. Fold increases were measured relative to HIVLAI (Table 4, FIGS. 2 and 3). Data are the averages of 2-6 independent experiments.

The target of assay [3] is RT derived from M184V particles (Human immunodeficiency virus type 1 group M subtype B, UniProt P03367, M783V). Particulars: particle-derived RT, 3.2 mM ATP, FIG. 5.
Source text: as §1, with “Subsequently, in the assay with recombinant purified RT enzyme, no ATP besides 1 μM dNTP was used.” left out

The subject of assay [4] is Recombinant S68del Reverse Transcriptase. As to the kind of experiment: Heteropolymeric DNA polymerase RT assay in the absence of ATP, recombinant S68del RT. The assay is classed as biochemical, HIV-1. The settings on record: Recombinant S68del RT IC50 divided by wild type IC50. As to the method: (§3) Nucleic acids were separated by gel electrophoresis in a TAE gel and extracted from bands using the Qiagen gel extraction kit. The 4.2 kb band from pNL4-3 containing the HIV-RT encoding sequences was ligated into the linearized pCR2.1, making the construct MC002. Site directed mutagenesis was performed on the MC002 plasmid. Primers used had the S68 codon AGT deleted, thus introducing the S68 deletion into the pNL4-3 RT background.
(§4) To ligate the RT of pNL4-3 comprising the deletion at S68 codon 68 into protein expression vector […] (Invitrogen), MC002 was amplified using forward primer 5′-[…]-3′ (SEQ ID NO: 10) and reverse primer 5′-[…] […]-3′ (SEQ ID NO: 11). The PCR product and pQE60 were digested with Bgl II and Nco I. The digested products were separated by gel electrophoresis nucleic acids in excised gel bands extracted using the Qiagen gel extraction kit. The amplified PCR product comprising the RT of pNL4-3 was ligated into the linearized pQE60. The ligation mix was transformed into chemically competent bacteria (Alpha-select). Plasmid DNA from selected transformants was extracted using a mini-prep kit (Qiagen). Plasmid DNA was sequenced in both directions to confirm the ligation.
as §1, §2

In assay [5] the target is T2, Recombinant S68del Reverse Transcriptase (Human immunodeficiency virus type 1 group M subtype B, UniProt P12497, DEL655-655).
T2 construct: The amplified PCR product comprising the RT of pNL4-3 was ligated into the linearized pQE60; inferred from the pQE60 vector and the in-frame BglII site of the reverse primer without a stop codon) (C); made in house; host or cells: bacteria
Described as above. It is filed as biochemical, HIV-1. As for the experimental part:
as §3, §4, §1, §2

The target of assay [6] is T3, Wild type Reverse Transcriptase (Human immunodeficiency virus type 1 group M subtype B, UniProt P12497).
T3 construct: The level of resistance to NRTI-TP by the S68del mutants compared to wild type RT
As to the kind of experiment: Heteropolymeric DNA polymerase RT assay in the absence of ATP, wild type RT. It is filed as biochemical, HIV-1. As for the experimental part: The level of resistance to NRTI-TP by the S68del mutants compared to wild type RT was determined as IC50 values of RT activity in the absence of ATP (Table 6). […] The RT activity was linear during the assay time within the substrate range used, and thus steady state kinetics were assumed.

The structures appear in SMILES notation.

For the compound `Nc1nc(=O)n([C@@H]2CS[C@H](CO)O2)cc1F` (relative stereo) [(−)-FTC, cis-2-hydroxymethyl-5-(5-fluorocytosin-1-yl)-1,3-oxathiolane], in assay [1] (particle-derived RT, 3.2 mM ATP, FIG. 5), the “resistance of S68del RT (in words)” value is reported as “increased resistance”. In assay [2], this compound displayed a half-maximal effective concentration (EC50) of 300 nM and an EC90 of 1100 nM. Moreover, in assay [3], the “resistance of M184V RT (in words)” value is recorded as “increased resistance”.
For `Nc1nc(=O)n(C2C=CC(COP(=O)(O)OP(=O)(O)OP(=O)(O)O)O2)cc1F` (stereo not drawn) [DFC-TP], the “fold increase in resistance” value in assay [1] (virally-derived S68del RT, relative to HIVLAI, enzymatic assay) is 5.6 fold. Also, the Fold-incr in assay [4] amounted to 7.9; in assay [6] (Wild type RT (reference)), 1.0. Moreover, the concentration for half-maximal inhibition (IC50) was found to be 1100 ± 200 nM in assay [5] and 140 ± 20 nM in assay [6] (Wild type RT).
